# According to publication PMC10800023 (Human Molecular Genetics, 2023):
# “And” between values parts separate entries of the source, which are not always exact repeats. Identical values can stand only once. Like-named read-outs stand apart in the source and are kept apart here. Marks after values point to notes of the source that are not given here.
# Tests used:
# [1] = tested on: B10-mdx mice; experiment: Femur bone density by micro-CT (Study 2); type: in vivo, mouse; conditions: for bone density measured by microCT: 4 months of treatment
# Procedure: To evaluate the similarities and differences of potential side effects of the three corticosteroids, plasma/blood were evaluated ex vivo for their effects on endogenous corticosteroid after 14 days of dosing (Study 1) and glucose levels (Study 1) after 11 days of dosing. Bone formation was measured by evaluating osteocalcin levels in Study 1 after 14 days. Bone density was measured by micro-computed tomography (micro-CT) in Study 2 after 4 months.
# Study 2: The goal of the second study was to evaluate corticosteroid side effects and efficacy in a longer study (4 months). After 28 days of dosing, mice were tested for depression-like behavior using a measure of corticosteroid-induced depression (FST followed by TST). Muscle function was tested via grip strength. Tests for depression and for grip-strength were done in a blinded manner. After 4 months, mice were euthanized, and tissues were collected. Bone from whole left leg was collected for micro-CT analysis. The number of animals per group was as follows: WT, n = 16; B10-mdx, n = 15; corticosteroid-treated groups, n = 8–10.
# Micro-CT analysis was performed by the Rutgers University Molecular Imaging Center (RUMIC). Briefly, skeletons were harvested at trial endpoint and stored in 70% ethanol and transferred for imaging analysis. Hindlimbs were soaked in isotonic saline solution overnight to rehydrate before imaging. […] The rotation step was 0.4° through 180° total rotation, and three images were averaged at each rotation step. Each distal femur was scanned separately, and images were saved. Scan images were reconstructed using Skyscan nRecon software.
# [2] = cited from earlier work
# [3] = tested on: IL-12; experiment: LPS-induced IL-12 in cultured BMDM; type: cell-based; conditions: Mus musculus, corticosteroid overnight, LPS 10 ng/ml 3 h
# Source text: (§1) The immunosuppressive activity of corticosteroids is in part due to their inhibition of NF-κB-induced cytokines including TNF-α, IL-6, and IL-12. Furthermore, expression of some inflammatory-mediated proteins such as STAT1 is mediated via GREs, and not the NF-κB pathway. We therefore expanded murine bone marrow-derived macrophages (BMDM) in vitro, and after 5 days of culture tested the relative efficacy of different corticosteroids to prevent LPS-induced cytokine secretion.
# (§2) BMDM mouse bone marrow derived macrophage (mBMDM) cultures were generated from the femur and tibia from two 7–11-week-old C57BL/6 mice. Briefly, bone marrow cells were carefully flushed out, suspended in ice-cold PBS, and spun down. After the supernatant was removed, the pelleted cells were resuspended in 2 ml (ammonium-Chloride-Potassium) ACK lysis buffer (Thermo Fisher, Cat# A1049201) and incubated for 3–4 min, followed by 14 ml ice-cold PBS, and then spun down. The pelleted cells were resuspended in 43 ml complete media [Roswell Park Memorial Institute (RPMI 1640), Gibco, Cat# 11875-093; 10% heat-inactivated fetal bovine serum (HiFBS), HyClone, Cat# SH30406.02; 1% 2 mM L-glutamine; 1% penicillin-streptomycin, Sigma, Cat# P4333-100ML; 1% MEM NEAA, Gibco, Cat# 11140-050; 1% Na Pyruvate, Gibco, Cat# 11360-070; 55 μM 2-Mercaptoethanol, Gibco, Cat#21985-023]. A total of 25 ng/ml M-CSF was added to the culture. Cells were dispensed as 200 μl per well into a 96-well tissue culture plate and incubated at 37°C, 5% CO2 for 4 days. On Day 5, media were removed and 100 μl fresh complete media containing M-CSF were added. Corticosteroids were added and cells incubated at 37°C and 5% CO2 overnight. Untreated cells were incubated with media. On Day 6, 10 ng/ml of lipopolysaccharide (LPS) was added and incubated at 37°C and 5% CO2 for 3 h followed by removal of cell media for cytokine analysis. Cytokines were measured using a Meso Scale Discovery (MSD), V-PLEX kit (V-PLEX Cat# K-15048D, www.mesoscale.com).
# [4] = tested on: B10-mdx mice; experiment: Circulating lymphocytes and neutrophils (CBC) after 2 weeks (Study 1); type: in vivo, mouse
# Procedure: It is understood that part of the efficacy of corticosteroids is via their impact on leukocyte trafficking, resulting in a decrease in lymphocyte and an increase in neutrophil counts in the blood within hours of drug administration. Corticostetoids regulate leukocyte trafficking via changes in adhesion molecules and cytokines, which likely reflects inhibition of NF-κB [39, 40]. The effect of the three corticosteroids on leukocyte trafficking was assessed in B10-mdx mice after 2 weeks of dosing (Study 1). No significant differences in neutrophil-to-lymphocyte ratio were seen between wildtype and B10-mdx mice (Fig. 6a).
# Study 1: The goal of this study was to define the dose-response of each of the three corticosteroids. […] On Day 11, mice were fasted for 6 h and then blood was obtained to measure blood glucose. Blood glucose was measured using a glucometer (ACCU-CHECK) by tail bleeding. At the end of 14 days, mice were euthanized, and blood samples were evaluated for complete blood count (CBC) and plasma were collected for analysis of corticosterone levels, osteocalcin, creatine kinase, and cytokines. Brain, muscle, and liver were collected for RNAseq. The number of animals per group was as follows: WT, n = 15; B10-mdx, n = 11; corticosteroid-treated groups, n = 10–12.
# [5] = tested on: B10-mdx mice; experiment: Diaphragm hydroxyproline assay (Study 2); type: in vivo, mouse; conditions: 4 months
# Procedure: To determine muscle damage in B10-mdx mice and to evaluate the effects of the three corticosteroids on muscle, we used the hydroxyproline assay to measure the collagen content in diaphragm muscle tissue, a measure of muscle damage and fibrosis. […] Levels were reduced in mice treated with any of the three corticosteroids (Fig. 6d).
# Diaphragm muscles were dissected, weighed, and stored at −80°. Tissues were cut to avoid the tendon(s), and 10 ± 1 mg of tissue was homogenized through sonication. Water and hydrochloric acid (12 M) content were normalized prior to hydrolysis at 120° for 3 h in pressure-tight polypropylene vials. After boiling, the hydrolysates were centrifuged at 10 000 × g for 3 min, and 6-μl triplicates of the hydrolysate were added to clear 96-well plates for evaporation in a 60°C oven overnight. The following day, a hydroxyproline kit (Sigma, cat #MAK008) was used to determine the hydroxyproline content. In each sample and standard well, 100 μl Chloramine T/Oxidation buffer mixture was added, incubated for 5 min at room temperature, and followed with 100 μl of perchloric acid diluted DMAB concentrate. The plate was sealed and incubated in a 60°C oven for 90 min. The 96-well plates were read using a BioTek Epoch 2 Spectrophotometer at an absorbance of 560 nm.
# [6] = tested on: mineralocorticoid receptor; set-up: method as in PMID 30745312; conditions: cited from earlier work
# [7] = tested on: STAT1; experiment: GRE-mediated STAT1 in cultured BMDM; type: cell-based, mouse; conditions: for EC50: Mus musculus, BMDM, corticosteroid overnight, LPS 10 ng/ml 3 h; for STAT1/IFN-γ Ratio: ratio of EC50 values
# Source text: as §1, §2
# [8] = human, 2 mg/kg, ref Conklin et al., Pharmacol Res. 2018
# [9] = human, 6 mg/kg, ref Conklin et al., Pharmacol Res. 2018
smiles,measurement,setting,value
C[C@@H]1C[C@H]2[C@@H]3CCC4=CC(=O)C=C[C@]4(C)C3=CC[C@]2(C)[C@@]1(O)C(=O)CO [Vamorolone],bone density measured by microCT,[1],not reaching significance
same,AUC (Day 1),[2]; [8],761 ng·h/mL
same,Cmax,[2]; [8],199 ng/mL
same,AUC (Day 1),[2]; [9],3279 ng·h/mL
same,Cmax,[2]; [9],856 ng/mL
same,EC50,[3],30 nM
same,% decrease in fraction of lymphocytes at Day 14 from mdx vehicle,[4]; 15 mg/kg PO daily,(0.5%)
same,% increase in fraction of PMNs at Day 14,[4]; 15 mg/kg PO daily,7%
same,% decrease in fraction of lymphocytes at Day 14 from mdx vehicle,[4]; 30 mg/kg PO daily,5%
same,% increase in fraction of PMNs at Day 14,[4]; 30 mg/kg PO daily,27%
same,% decrease in fraction of lymphocytes at Day 14 from mdx vehicle,[4]; 45 mg/kg PO daily,14%**
same,% increase in fraction of PMNs at Day 14,[4]; 45 mg/kg PO daily,70%**
same,diaphragm hydroxyproline (fibrosis),[5]; 45 mg/kg,did not reach significance
same,diaphragm hydroxyproline (fibrosis),[5]; 15 and 30 mg/kg,reduced fibrosis
same,effect on mineralocorticoid receptor signaling,[6],antagonist
same,EC50,[7],7.6 nM
same,STAT1/IFN-γ Ratio,[7],10×
CC(=O)OCC(=O)[C@@]12N=C(C)O[C@@H]1C[C@H]1[C@@H]3CCC4=CC(=O)C=C[C@]4(C)[C@H]3[C@@H](O)C[C@@]12C [Deflazacort],bone density measured by microCT,[1],not reaching significance
same,Cmax,"[2]; human, 0.9 mg/kg, ref FDA 208684,208685Orig1s000ClinPharmR.pdf",329 ng/mL
same,AUC (Day 1),"[2]; human, 0.9 mg/kg, ref FDA 208684,208685Orig1s000ClinPharmR.pdf, listed as Emflaza",567 ng·h/mL and 630 ng·h/mL
same,EC50,[3],3.6 nM
same,% decrease in fraction of lymphocytes at Day 14 from mdx vehicle,[4]; 1.25 mg/kg PO daily,(1%)
same,% increase in fraction of PMNs at Day 14,[4]; 1.25 mg/kg PO daily,3%
same,% decrease in fraction of lymphocytes at Day 14 from mdx vehicle,[4]; 2.5 mg/kg PO daily,5%
same,% increase in fraction of PMNs at Day 14,[4]; 2.5 mg/kg PO daily,32%*
same,% decrease in fraction of lymphocytes at Day 14 from mdx vehicle,[4]; 5 mg/kg PO daily,9%*
same,% increase in fraction of PMNs at Day 14,[4]; 5 mg/kg PO daily,41%*
same,% decrease in fraction of lymphocytes at Day 14 from mdx vehicle,[4]; 15 mg/kg PO daily,19%****
same,% increase in fraction of PMNs at Day 14,[4]; 15 mg/kg PO daily,82%****
same,diaphragm hydroxyproline (fibrosis),[5]; 5 and 15 mg/kg,reduced fibrosis
same,effect on mineralocorticoid receptor signaling,[6],no effect
same,EC50,[7],3.1 nM
same,STAT1/IFN-γ Ratio,[7],11×
C[C@]12C=CC(=O)C=C1CC[C@@H]1[C@@H]2[C@@H](O)C[C@@]2(C)[C@H]1CC[C@]2(O)C(=O)CO [Prednisolone],bone density in the femur (micro-CT tissue mineral density),"[1]; 4 months, highest dose",significantly reduced bone density
same,AUC (Day 1),"[2]; human adults, 0.35 mg/kg (20 mg/57 kg), AUC0-12, average of two formulations, ref Bashar et al., Dose Response 2018",3301 ng·h/mL
same,Cmax,"[2]; human adults, 0.35 mg/kg (20 mg/57 kg), average of two formulations, ref Bashar et al., Dose Response 2018",659 ng/mL
same,EC50,[3],8.5 nM
same,% decrease in fraction of lymphocytes at Day 14 from mdx vehicle,[4]; 1.2 mg/kg PO daily,17%**
same,% increase in fraction of PMNs at Day 14,[4]; 1.2 mg/kg PO daily,64%**
same,% decrease in fraction of lymphocytes at Day 14 from mdx vehicle,[4]; 2.4 mg/kg PO daily,18%**
same,% increase in fraction of PMNs at Day 14,[4]; 2.4 mg/kg PO daily,81%***
same,% decrease in fraction of lymphocytes at Day 14 from mdx vehicle,[4]; 5 mg/kg PO daily,21%***
same,% increase in fraction of PMNs at Day 14,[4]; 5 mg/kg PO daily,92%****
same,diaphragm hydroxyproline (fibrosis),[5]; 5 mg/kg,reduced fibrosis
same,effect on mineralocorticoid receptor signaling,[6],agonist
same,EC50,[7],9.4 nM
